Test results reported in ChEMBL document CHEMBL3991601, “The target landscape of clinical kinase drugs” (Science, 2017).
Activity calls are given as the source filed them. For most assays here, no stated cut-off is given here; in the data, actives have a measured Kd and inactives only a lower limit.

Columns and labels:
Ephrin type-B receptor 6 = target: T1, Ephrin type-B receptor 6 (Homo sapiens, UniProt O15197)
T1 sequence (O15197 whole entry): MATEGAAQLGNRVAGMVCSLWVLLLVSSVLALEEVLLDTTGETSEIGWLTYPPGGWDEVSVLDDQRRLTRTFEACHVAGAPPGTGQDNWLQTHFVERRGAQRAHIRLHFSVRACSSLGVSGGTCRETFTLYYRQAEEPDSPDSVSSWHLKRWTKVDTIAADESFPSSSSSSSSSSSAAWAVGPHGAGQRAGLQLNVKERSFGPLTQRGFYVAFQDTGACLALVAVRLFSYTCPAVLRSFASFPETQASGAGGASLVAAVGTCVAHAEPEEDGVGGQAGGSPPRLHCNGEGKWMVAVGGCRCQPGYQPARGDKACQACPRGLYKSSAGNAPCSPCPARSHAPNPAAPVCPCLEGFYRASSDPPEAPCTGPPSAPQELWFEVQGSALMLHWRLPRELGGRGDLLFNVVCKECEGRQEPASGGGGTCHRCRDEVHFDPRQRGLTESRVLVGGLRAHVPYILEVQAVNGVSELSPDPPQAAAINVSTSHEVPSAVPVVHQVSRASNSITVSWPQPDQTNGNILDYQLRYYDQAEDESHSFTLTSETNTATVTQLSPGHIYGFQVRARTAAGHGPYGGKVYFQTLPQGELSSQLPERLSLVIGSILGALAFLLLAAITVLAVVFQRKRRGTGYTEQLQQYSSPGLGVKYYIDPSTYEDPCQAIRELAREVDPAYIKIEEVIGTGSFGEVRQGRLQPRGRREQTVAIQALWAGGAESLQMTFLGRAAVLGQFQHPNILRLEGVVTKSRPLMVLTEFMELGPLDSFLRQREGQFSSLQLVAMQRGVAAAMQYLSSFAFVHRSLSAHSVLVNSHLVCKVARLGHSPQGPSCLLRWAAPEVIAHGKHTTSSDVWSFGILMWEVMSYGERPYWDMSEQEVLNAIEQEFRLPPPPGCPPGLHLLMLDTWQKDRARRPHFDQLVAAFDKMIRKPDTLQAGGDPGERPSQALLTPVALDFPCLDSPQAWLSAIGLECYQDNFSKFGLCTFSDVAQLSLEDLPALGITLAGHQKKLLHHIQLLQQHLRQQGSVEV

[1] = target: Serine/threonine-protein kinase PAK 4 (Homo sapiens, UniProt O96013)
[2] = target: Mitogen-activated protein kinase 8 (Homo sapiens, UniProt P45983)
Wee1-like protein kinase = Wee1-like protein kinase (Homo sapiens, UniProt P30291)
Rab-like protein 3 = target: T2, Rab-like protein 3 (Homo sapiens, UniProt Q5HYI8)
T2 sequence (Q5HYI8 whole entry): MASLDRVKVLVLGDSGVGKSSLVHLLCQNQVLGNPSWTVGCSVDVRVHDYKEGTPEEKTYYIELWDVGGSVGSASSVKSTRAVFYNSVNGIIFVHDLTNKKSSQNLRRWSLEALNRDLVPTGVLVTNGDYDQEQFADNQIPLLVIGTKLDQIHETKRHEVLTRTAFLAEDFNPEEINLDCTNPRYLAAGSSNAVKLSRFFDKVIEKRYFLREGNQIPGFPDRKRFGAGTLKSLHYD

[3] = target: Cyclin-dependent kinase 1 (Homo sapiens, UniProt P06493)
[4] = target: TRAF2 and NCK-interacting protein kinase (Homo sapiens, UniProt Q9UKE5)
[5] = target: Tyrosine-protein kinase Yes (Homo sapiens, UniProt P07947)
[6] = target: T3, Dual specificity mitogen-activated protein kinase kinase 6 (Homo sapiens, UniProt P52564)
T3 sequence (P52564 whole entry): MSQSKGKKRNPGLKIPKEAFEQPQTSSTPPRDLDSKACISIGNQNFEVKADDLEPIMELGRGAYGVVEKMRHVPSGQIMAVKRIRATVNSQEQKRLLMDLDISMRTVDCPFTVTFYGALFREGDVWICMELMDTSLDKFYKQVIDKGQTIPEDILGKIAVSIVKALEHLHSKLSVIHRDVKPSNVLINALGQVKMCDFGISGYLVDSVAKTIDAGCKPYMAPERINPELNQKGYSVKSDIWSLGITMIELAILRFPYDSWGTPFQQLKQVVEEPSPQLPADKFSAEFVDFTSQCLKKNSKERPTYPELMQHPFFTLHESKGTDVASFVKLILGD

[7] = target: U5 small nuclear ribonucleoprotein 200 kDa helicase (Homo sapiens, UniProt O75643)
[8] = target: T4, Serine/threonine-protein kinase Nek2 (Homo sapiens, UniProt P51955)
T4 sequence (P51955 whole entry): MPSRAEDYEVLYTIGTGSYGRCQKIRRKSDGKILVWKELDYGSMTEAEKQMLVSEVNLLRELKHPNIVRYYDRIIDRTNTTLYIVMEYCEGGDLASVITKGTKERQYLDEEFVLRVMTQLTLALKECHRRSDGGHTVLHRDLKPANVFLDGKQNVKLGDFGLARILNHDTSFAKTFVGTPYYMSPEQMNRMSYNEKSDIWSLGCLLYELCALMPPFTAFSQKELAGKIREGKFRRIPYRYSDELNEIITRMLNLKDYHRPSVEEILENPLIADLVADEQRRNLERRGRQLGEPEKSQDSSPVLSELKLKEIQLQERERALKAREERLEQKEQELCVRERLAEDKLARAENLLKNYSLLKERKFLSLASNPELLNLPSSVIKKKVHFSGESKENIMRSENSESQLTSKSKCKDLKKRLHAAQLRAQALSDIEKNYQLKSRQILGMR

[9] = target: Tyrosine-protein kinase FRK (Homo sapiens, UniProt P42685)
Chain of Tyrosine-protein kinase FRK (P42685 whole entry): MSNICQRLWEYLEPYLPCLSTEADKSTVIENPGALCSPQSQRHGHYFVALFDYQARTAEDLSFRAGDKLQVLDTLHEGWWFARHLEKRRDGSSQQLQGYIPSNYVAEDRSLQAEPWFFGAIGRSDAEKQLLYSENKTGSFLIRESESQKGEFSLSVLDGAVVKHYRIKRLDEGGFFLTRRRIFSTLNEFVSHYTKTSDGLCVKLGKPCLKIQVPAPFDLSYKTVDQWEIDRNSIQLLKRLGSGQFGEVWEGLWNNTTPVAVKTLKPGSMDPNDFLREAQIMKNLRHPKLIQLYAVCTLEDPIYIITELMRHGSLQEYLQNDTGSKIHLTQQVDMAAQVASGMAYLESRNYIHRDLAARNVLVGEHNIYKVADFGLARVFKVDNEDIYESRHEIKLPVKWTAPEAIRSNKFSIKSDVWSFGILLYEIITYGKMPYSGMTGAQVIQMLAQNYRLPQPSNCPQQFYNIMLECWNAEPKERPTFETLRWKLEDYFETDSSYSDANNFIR

Chain of TRAF2 and NCK-interacting protein kinase (Q9UKE5 whole entry): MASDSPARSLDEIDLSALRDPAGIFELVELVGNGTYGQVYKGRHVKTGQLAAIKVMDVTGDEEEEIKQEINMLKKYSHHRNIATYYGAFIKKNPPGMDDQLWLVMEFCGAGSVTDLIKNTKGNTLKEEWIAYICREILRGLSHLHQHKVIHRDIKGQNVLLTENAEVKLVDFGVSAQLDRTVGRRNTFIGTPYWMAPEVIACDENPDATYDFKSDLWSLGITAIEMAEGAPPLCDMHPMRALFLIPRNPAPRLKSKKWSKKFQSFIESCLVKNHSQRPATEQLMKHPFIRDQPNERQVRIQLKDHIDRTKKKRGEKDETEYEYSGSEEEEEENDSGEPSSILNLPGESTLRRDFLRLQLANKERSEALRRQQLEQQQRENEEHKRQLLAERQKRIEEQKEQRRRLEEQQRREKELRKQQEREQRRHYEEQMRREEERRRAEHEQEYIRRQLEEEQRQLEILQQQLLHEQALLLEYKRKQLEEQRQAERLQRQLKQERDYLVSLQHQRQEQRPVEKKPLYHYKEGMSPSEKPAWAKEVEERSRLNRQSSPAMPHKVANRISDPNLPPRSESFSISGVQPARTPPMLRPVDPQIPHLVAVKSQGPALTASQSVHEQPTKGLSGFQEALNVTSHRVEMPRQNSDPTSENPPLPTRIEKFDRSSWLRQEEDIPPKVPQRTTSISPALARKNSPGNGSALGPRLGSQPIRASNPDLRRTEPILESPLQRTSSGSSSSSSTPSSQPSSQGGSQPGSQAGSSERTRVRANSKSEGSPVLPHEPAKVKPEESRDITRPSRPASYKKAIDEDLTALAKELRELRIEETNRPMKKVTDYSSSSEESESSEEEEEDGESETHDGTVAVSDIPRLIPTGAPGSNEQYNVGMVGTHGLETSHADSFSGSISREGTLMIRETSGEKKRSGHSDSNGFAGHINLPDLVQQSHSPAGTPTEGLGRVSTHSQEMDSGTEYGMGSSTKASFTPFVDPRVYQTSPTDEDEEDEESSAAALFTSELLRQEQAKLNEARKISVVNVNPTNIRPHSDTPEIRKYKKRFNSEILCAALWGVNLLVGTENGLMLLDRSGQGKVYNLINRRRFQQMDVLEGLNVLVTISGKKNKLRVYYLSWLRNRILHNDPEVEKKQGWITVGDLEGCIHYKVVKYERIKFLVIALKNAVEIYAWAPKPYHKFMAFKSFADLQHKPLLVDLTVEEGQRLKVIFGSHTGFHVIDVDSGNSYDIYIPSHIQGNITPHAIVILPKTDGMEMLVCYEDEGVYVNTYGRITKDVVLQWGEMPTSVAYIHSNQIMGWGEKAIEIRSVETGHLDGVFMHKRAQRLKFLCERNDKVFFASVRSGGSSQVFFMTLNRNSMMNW
Chain of Mitogen-activated protein kinase 8 (P45983 whole entry): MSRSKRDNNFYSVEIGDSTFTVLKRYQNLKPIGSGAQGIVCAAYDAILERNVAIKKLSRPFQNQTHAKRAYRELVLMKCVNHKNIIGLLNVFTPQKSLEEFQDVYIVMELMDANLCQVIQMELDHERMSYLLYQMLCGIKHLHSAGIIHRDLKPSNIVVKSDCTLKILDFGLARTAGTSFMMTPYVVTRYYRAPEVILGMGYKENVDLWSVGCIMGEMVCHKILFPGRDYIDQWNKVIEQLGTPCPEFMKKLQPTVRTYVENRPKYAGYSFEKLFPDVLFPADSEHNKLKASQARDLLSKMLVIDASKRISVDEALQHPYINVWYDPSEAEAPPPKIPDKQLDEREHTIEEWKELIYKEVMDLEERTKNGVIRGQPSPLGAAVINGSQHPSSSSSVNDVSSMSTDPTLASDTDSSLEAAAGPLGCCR
Chain of Serine/threonine-protein kinase PAK 4 (O96013 whole entry): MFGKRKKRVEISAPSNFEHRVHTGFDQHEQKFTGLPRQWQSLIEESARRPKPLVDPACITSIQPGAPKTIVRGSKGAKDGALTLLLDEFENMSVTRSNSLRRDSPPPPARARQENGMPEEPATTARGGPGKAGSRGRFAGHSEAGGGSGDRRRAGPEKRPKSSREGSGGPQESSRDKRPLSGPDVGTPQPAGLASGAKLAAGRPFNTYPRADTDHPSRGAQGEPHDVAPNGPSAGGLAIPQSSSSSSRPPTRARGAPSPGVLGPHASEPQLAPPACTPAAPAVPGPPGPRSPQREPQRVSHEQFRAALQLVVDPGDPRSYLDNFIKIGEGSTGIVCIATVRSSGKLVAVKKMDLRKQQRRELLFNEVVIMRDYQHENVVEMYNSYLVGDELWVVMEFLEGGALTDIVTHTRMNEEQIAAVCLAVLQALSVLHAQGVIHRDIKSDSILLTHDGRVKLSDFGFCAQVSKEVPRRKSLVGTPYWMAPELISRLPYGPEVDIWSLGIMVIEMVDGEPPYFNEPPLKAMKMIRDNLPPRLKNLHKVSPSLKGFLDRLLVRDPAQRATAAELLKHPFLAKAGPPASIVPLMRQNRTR
Chain of U5 small nuclear ribonucleoprotein 200 kDa helicase (O75643 whole entry): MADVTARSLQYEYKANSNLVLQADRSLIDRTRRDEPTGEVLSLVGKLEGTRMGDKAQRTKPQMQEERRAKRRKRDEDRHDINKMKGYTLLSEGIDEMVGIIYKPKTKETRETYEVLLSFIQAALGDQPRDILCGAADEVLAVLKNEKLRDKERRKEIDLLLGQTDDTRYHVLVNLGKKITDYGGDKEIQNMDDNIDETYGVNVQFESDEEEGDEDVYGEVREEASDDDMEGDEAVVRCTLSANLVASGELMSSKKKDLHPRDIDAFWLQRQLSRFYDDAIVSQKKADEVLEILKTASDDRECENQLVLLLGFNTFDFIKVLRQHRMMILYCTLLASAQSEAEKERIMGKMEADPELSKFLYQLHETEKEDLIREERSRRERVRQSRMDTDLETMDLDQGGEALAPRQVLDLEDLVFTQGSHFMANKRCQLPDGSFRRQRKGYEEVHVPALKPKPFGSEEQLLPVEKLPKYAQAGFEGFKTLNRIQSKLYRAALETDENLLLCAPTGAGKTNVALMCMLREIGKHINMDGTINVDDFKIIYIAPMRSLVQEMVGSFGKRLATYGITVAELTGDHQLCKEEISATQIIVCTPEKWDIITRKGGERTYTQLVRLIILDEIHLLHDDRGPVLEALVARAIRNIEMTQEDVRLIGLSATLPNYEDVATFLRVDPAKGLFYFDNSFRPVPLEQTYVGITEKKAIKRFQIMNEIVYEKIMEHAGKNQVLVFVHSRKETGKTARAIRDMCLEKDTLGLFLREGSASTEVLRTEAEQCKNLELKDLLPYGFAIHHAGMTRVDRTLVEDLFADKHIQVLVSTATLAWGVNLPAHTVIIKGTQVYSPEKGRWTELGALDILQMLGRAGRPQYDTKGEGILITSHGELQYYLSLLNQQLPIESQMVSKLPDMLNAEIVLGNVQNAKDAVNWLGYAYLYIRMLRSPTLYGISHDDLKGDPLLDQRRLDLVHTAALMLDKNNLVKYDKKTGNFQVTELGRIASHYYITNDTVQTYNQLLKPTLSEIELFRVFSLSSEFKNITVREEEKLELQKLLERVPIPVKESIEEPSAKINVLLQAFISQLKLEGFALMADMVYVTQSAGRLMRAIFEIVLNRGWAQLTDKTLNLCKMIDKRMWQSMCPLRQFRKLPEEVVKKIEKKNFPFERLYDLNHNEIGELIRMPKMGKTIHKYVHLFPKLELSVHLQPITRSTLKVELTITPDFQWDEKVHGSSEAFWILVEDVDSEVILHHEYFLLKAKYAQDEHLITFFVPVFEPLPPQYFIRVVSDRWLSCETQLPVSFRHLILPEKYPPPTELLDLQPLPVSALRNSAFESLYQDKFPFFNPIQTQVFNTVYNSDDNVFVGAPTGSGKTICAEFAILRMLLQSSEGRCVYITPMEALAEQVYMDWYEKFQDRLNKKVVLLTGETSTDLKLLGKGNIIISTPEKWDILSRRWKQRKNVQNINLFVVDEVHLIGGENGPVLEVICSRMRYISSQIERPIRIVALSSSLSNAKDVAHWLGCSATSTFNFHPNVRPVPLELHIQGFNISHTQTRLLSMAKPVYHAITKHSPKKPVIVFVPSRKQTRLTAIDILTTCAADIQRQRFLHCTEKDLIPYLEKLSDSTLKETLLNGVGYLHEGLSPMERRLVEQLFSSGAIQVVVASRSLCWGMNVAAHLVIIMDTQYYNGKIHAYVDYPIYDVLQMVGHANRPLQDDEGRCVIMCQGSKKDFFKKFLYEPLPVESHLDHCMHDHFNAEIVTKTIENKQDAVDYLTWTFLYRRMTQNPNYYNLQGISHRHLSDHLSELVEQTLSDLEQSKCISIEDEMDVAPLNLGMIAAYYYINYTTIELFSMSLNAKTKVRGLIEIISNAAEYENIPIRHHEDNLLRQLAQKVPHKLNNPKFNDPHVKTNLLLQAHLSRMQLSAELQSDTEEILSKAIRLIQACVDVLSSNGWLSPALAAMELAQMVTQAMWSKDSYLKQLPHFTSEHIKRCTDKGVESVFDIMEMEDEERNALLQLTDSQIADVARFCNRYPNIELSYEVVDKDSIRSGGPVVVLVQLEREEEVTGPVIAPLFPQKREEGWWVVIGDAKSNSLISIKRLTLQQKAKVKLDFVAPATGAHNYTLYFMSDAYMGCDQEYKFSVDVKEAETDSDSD

Kd (Ephrin type-B receptor 6)	Kd [1]	Kd [2]	Kd (Wee1-like protein kinase)	Kd (Rab-like protein 3)	Kd [3]	Kd [4]	Kd [5]	Kd [6]	Kd [7]	Kd [8]	Kd [9]	Compound
> 30 µM (inactive)	> 30 µM (inactive)	> 30 µM (inactive)	> 30 µM (inactive)	> 30 µM (inactive)	> 30 µM (inactive)	> 30 µM (inactive)	> 30 µM (inactive)	> 30 µM (inactive)	> 30 µM (inactive)	> 30 µM (inactive)	> 30 µM (inactive)	CC(C)Nc1cc(-c2c[nH]c(C(=O)N[C@H](CO)c3cccc(Cl)c3)c2)c(Cl)cn1 [ULIXERTINIB]
> 30 µM (inactive)	> 30 µM (inactive)	> 30 µM (inactive)	> 30 µM (inactive)	> 30 µM (inactive)	> 30 µM (inactive)	> 30 µM (inactive)	> 30 µM (inactive)	> 30 µM (inactive)	> 30 µM (inactive)	> 30 µM (inactive)	> 30 µM (inactive)	Cn1cc(-c2ccc3nnc(C(F)(F)c4ccc5ncccc5c4)n3n2)cn1 [JNJ-38877605]
> 30 µM (inactive)	> 30 µM (inactive)	> 30 µM (inactive)	> 30 µM (inactive)	> 30 µM (inactive)	> 30 µM (inactive)	> 30 µM (inactive)	> 30 µM (inactive)	> 30 µM (inactive)	> 30 µM (inactive)	> 30 µM (inactive)	> 30 µM (inactive)	C[C@@H]1CN(Cc2ccc(F)cc2)[C@@H](C)CN1C(=O)c1cc2c(C(=O)C(=O)N(C)C)cn(C)c2cc1Cl [TALMAPIMOD]
> 30 µM (inactive)	> 30 µM (inactive)	1.96 µM (active)	> 30 µM (inactive)	> 30 µM (inactive)	> 30 µM (inactive)	0.089 µM	> 30 µM (inactive)	> 30 µM (inactive)	> 30 µM (inactive)	> 30 µM (inactive)	> 30 µM (inactive)	C1=C/COCc2cc(ccc2OCCN2CCCC2)Nc2nccc(n2)-c2cccc(c2)COC/1 [PACRITINIB]
> 30 µM (inactive)	> 30 µM (inactive)	> 30 µM (inactive)	> 30 µM (inactive)	> 30 µM (inactive)	> 30 µM (inactive)	> 30 µM (inactive)	0.781 µM (active)	> 30 µM (inactive)	> 30 µM (inactive)	> 30 µM (inactive)	0.39 µM (active)	COc1cc(N2CCC(N3CCN(C)CC3)CC2)ccc1Nc1ncnc(Nc2ccccc2S(=O)(=O)C(C)C)n1 [ASP-3026]
> 30 µM (inactive)	> 30 µM (inactive)	> 30 µM (inactive)	> 30 µM (inactive)	> 30 µM (inactive)	> 30 µM (inactive)	> 30 µM (inactive)	> 30 µM (inactive)	> 30 µM (inactive)	> 30 µM (inactive)	> 30 µM (inactive)	> 30 µM (inactive)	CNC(=O)c1ccc(-c2cnc3ncc(Cc4ccc5ncccc5c4)n3n2)cc1F [CAPMATINIB]
> 30 µM (inactive)	> 30 µM (inactive)	> 30 µM (inactive)	> 30 µM (inactive)	> 30 µM (inactive)	> 30 µM (inactive)	> 30 µM (inactive)	> 30 µM (inactive)	> 30 µM (inactive)	> 30 µM (inactive)	> 30 µM (inactive)	> 30 µM (inactive)	CNC(=O)CN1CCC(Oc2cc3c(Nc4cccc(Cl)c4F)ncnc3cc2OC)CC1 [SAPITINIB]

Compound	Kd (Ephrin type-B receptor 6)	Kd [1]	Kd [2]	Kd (Wee1-like protein kinase)	Kd (Rab-like protein 3)	Kd [3]	Kd [4]	Kd [5]	Kd [6]	Kd [7]	Kd [8]	Kd [9]
CN1CC[C@@H](c2c(O)cc(O)c3c(=O)cc(-c4ccccc4Cl)oc23)[C@@H]1CO	> 30 µM (inactive)	> 30 µM (inactive)	> 30 µM (inactive)	> 30 µM (inactive)	> 30 µM (inactive)	4.23 µM (active)	> 30 µM (inactive)	> 30 µM (inactive)	> 30 µM (inactive)	> 30 µM (inactive)	> 30 µM (inactive)	> 30 µM (inactive)
